Source: ChEMBL document CHEMBL1201862, “PubChem BioAssay data set” (2004)
Activity calls are given as the source filed them. Rule as the data show it, for most assays here: actives have a measured EC50 and inactives only a lower limit.

Columns and labels:
BJ [1] = test: cells; format: functional, cell-based; details: Homo sapiens
BJ [2] = test: cytotoxicity toward BJ-TERT-LT-ST fibroblasts, dose response, cell-based, RAS-independent, luminescence (AID 1935); format: functional; details: Homo sapiens;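 also: BJ fibroblasts immortalized with TERT plus LT and ST oncogenes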
[3] = cytotoxicity in HEK-293T cells, dose response, cytotoxicity control for TCR NF-kB inhibitor project, luminescence, T-cell screen hits (AID 489026); format: functional, cell-based;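 also: cells exposed to compound about 14 hours before the viability readout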
[4] = cytotoxicity toward DRD oncogenic fibroblasts, dose response, cell-based, non-viral oncogenic, luminescence (AID 1934); format: functional; details: Homo sapiens
BJ [5] = test: cytotoxicity toward BJ-TERT fibroblasts, dose response, cell-based, RAS-independent, luminescence (AID 1933); format: functional; details: Homo sapiens
Hexokinase = biological target: T1, Hexokinase (Trypanosoma brucei, UniProt Q38C41); test: Confirmation assay for inhibitors of Trypanosoma brucei hexokinase 1-Analogue-first series. [Related pubchem assays (depositor defined):AID1430, AID1632, AID2516, AID2560, AID2579, AID2600, AID449725, AID492951]; format: functional
T1 sequence (Q38C41 whole entry): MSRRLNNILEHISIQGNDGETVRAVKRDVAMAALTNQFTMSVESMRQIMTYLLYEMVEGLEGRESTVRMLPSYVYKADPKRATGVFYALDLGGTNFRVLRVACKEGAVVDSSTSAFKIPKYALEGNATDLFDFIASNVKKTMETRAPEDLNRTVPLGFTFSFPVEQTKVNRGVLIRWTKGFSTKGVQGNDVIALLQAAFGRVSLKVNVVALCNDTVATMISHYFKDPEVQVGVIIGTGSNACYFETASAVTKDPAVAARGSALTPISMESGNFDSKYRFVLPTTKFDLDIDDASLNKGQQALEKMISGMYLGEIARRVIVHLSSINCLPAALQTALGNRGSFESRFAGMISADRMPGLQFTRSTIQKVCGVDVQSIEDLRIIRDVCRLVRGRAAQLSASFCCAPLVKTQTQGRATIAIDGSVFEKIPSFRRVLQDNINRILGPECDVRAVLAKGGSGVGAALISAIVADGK

[6] = biological target: T2, Microphthalmia-associated transcription factor (Homo sapiens, UniProt O75030); test: TRPM1 promoter luciferase signal decrease, dose response, MITF inhibitor project, cell-based, SK-MEL-5, cherry-picked, set 3 (AID 493073); format: functional
T2 sequence (O75030 whole entry): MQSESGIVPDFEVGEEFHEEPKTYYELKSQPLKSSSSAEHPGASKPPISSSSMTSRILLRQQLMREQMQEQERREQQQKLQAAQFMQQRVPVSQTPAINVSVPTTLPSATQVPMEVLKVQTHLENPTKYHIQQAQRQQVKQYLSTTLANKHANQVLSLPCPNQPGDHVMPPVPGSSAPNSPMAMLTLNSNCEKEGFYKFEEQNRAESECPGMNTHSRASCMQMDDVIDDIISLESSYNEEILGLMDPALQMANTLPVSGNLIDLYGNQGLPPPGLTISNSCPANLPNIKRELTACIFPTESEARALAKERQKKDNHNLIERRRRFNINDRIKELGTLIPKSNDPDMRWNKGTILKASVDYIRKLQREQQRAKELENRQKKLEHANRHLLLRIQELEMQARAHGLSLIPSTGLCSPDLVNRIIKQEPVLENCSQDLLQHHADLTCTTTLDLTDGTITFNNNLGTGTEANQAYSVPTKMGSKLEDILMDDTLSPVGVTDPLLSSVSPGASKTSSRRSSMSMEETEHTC

H4 = test: Luminescence Cell-Based Dose Response HTS to Identify Activators of 5'UTR Stem-Loop Driven Prion Protein mRNA Translation in H4 Neuroglioblastoma Cells. [Related pubchem assays: 1829 (Project Summary), 1814 (Primary HTS)]; format: functional; details: Homo sapiens
[7] = biological target: Heat shock protein HSP 90-alpha (Homo sapiens, UniProt P07900); format: functional, organism-based
[8] = Luminescence Cell-Based Dose Confirmation HTS to Identify Activators of 5'UTR Stem-Loop Driven Alpha-Synuclein mRNA Translation in H4 Neuroglioblastoma Cells. [Related pubchem assays: 1829 (Project Summary), 1814 (Primary HTS)]; format: functional
[9] = Luminescence Cell-Based Dose Response HTS to Identify Activators of Luciferase Translation or Activity in H4 […] Cells. [Related pubchem assays: 1829 (Project Summary), 1814 (Primary HTS)]; format: functional
[10] = biological target: T3, RNA-binding protein pos-1 (Caenorhabditis elegans, UniProt G5EF15); test: inhibitors of POS-1/mex-3 RNA binding, dose response, biochemical, fluorescence polarization (AID 1964);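 also: purified POS-1 fused to maltose binding protein made in E. coli; potency of compounds blocking POS-1 binding to fluorescent RNA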
T3 sequence (G5EF15 whole entry): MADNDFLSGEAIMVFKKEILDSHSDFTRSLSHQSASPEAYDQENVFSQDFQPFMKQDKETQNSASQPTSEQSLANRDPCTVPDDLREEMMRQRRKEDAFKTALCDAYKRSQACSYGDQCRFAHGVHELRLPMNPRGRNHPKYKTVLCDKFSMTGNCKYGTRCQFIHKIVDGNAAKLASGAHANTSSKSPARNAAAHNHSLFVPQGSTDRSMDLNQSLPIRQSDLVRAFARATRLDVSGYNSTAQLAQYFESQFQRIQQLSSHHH

[11] = biological target: T4, Zinc finger protein mex-5 (Caenorhabditis elegans, UniProt Q9XUB2); test: MEX-5/TCR-2 RNA interaction inhibitors, dose response, biochemical, C. elegans, fluorescence polarization (AID 1960)
T4 sequence (Q9XUB2 whole entry): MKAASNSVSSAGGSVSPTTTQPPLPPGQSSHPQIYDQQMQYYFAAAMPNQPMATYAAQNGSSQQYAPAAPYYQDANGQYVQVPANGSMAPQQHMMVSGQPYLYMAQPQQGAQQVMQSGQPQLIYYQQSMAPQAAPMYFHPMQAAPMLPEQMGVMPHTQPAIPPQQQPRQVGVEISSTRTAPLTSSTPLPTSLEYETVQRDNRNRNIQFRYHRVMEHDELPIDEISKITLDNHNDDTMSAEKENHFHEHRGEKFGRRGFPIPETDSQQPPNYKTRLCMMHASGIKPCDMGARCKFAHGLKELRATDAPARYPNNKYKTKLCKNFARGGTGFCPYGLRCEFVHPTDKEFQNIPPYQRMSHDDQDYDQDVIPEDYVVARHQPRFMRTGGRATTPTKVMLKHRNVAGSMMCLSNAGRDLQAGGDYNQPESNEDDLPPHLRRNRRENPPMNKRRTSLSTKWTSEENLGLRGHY

H9c2 = test: cells; format: functional, cell-based; details: Rattus norvegicus, H9c2, Myocardium;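 also: confirmatory concentration-response retest of ultra-high-throughput screening hits for modulation of myocardial damage; cell death induced by hydrogen peroxide oxidative stress; compound pretreatment for 60 min then peroxide exposure for 2 h; potency is for protecting the cells against peroxide damage rather than for killing them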
Paired box protein Pax-8 = Paired box protein Pax-8 (Homo sapiens, UniProt Q06710); test: inhibitors of PAX8-driven TPO luciferase reporter, dose response, RMG-I cells, cherry-pick (AID 687027); format: functional, cell-based;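 also: luciferase reporter driven by Pax8 target thyroperoxidase promoter measured by SteadyGlo luminescence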
[12] = non-specific cell cytotoxicity, dose response, cytotoxicity control for PAX8 inhibitor project, plate reader, dry powder samples (AID 743021); format: functional, cell-based
[13] = cytotoxicity in OVCAR8 ovarian cancer cells, dose response, PAX8 project, cell-based, plate reader, dry powder samples (AID 743197); format: functional; details: OVCAR-8
[14] = NIH:OVCAR-3 ovarian cancer cell cytotoxicity, dose response, PAX8 inhibitor project, plate reader, dry powder samples (AID 743044); format: functional, cell-based
[15] = tested on: Streptococcus sp. 'group A'; test: growth inhibition of control SK(-) GAS strain, dose response, counter-screen for streptokinase expression inhibitor project, luminescence, kanamycin, BacTiterGlo, confirmation (AID 1900); format: functional, organism-based
[16] = inhibitors of intracellular T. cruzi replication, confirmation, NIH3T3 host cells, beta-gal luminescence (AID 2044); format: functional, cell-based;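 also: intracellular parasites grown in NIH/3T3 mouse fibroblasts as host cells; luminescent beta-galactosidase reporter signal from transgenic T. cruzi replicating inside host cells; inhibitors lower the luminescence signal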
[17] = cytotoxicity toward NIH3T3 fibroblasts, dose response, counter-screen, cell-based, ATP luminescence, mouse fibroblasts (AID 2010); format: functional;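 also: cells exposed to compound for about 90 hours before reading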
Streptococcus = test: Group A Streptococcus viability loss, dose response, counter-screen for streptokinase expression inhibitor project, luminescence, BacTiterGlo (AID 1915); format: functional, organism-based;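 also: potency for reduction of bacterial viability or growth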
BJ [18] = test: cytotoxicity toward Ras-transformed BJeLR fibroblasts, dose response, cell-based, alamar blue fluorescence, cherrypicked samples (AID 2631); format: functional; details: Homo sapiens;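 also: confirmatory dose-response assay in RAS-dependent BJ fibroblasts engineered with TERT, LT and ST, with cytotoxicity read by fluorescence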

Sequence of Paired box protein Pax-8 (Q06710 whole entry): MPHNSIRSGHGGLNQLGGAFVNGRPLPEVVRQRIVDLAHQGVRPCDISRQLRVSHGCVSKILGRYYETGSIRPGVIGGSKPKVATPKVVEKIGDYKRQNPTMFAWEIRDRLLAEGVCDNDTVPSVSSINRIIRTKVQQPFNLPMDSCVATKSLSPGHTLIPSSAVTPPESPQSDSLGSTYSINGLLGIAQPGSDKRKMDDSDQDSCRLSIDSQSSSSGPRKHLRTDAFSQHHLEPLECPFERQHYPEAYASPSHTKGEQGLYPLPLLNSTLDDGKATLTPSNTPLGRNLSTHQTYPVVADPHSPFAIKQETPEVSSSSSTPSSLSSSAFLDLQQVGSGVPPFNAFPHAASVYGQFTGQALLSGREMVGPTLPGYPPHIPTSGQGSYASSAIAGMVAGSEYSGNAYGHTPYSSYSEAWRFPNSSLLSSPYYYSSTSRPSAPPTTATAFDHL

With `CC(Oc1ccc(Cl)cc1Cl)C(=O)Nc1ccncc1` (stereo unspecified) the EC50 (BJ [1]) was 23.9 µM (active), the EC50 (BJ [2]) was > 150 µM (not active) and the IC50 [3] was > 80 µM (inactive). For the same molecule, the EC50 [4] was > 150 µM (not active) and the EC50 (BJ [5]) was > 150 µM (not active).

With `O=c1c2ccc(Br)cc2sn1-c1ccccc1` the IC50 (Hexokinase) was 3.61 µM (active).

In the case of `O=S1(=O)CCC(NC(=S)SCc2ccccc2Br)C1` (stereo unspecified), the AC50 [6] is reported as 25.6 µM (active).

In the case of `O=C(/C=C/N1CCOCC1)c1ccc(-c2ccccc2)cc1`, the EC50 (H4) is reported as 57.7 µM (active), the AC50 [7] is reported as 1.68 µM (active) and the EC50 [8] is reported as 3.53 µM (active). The EC50 [9] was 36.8 µM (active), the EC50 [10] was > 300 µM (not active) and the EC50 [11] was > 300 µM (not active).

For `Clc1cccc(Cl)c1/C=N/Nc1c(Cl)cncc1Cl`, the EC50 (BJ [1]) was > 150 µM (inconclusive), the EC50 (BJ [2]) was 76.6 µM (active) and the IC50 [3] was > 80 µM (inactive). For the same molecule, the EC50 [4] was 4.33 µM (active) and the EC50 (BJ [5]) was 13.7 µM (active).

In the case of `CCCC(c1nnnn1C(C)(C)CC)N(CCCO)Cc1cc2cc(C)cc(C)c2nc1O` (stereo unspecified), the IC50 (H9c2) is reported as 38.7 µM (inactive).

For `CCOC(=O)CSc1nnc(CSc2nc(O)c3ccccc3n2)n1-c1ccccc1`, the IC50 (H9c2) was > 79 µM (inactive).

With `C[C@@H]1CN([C@@H](C)CO)S(=O)(=O)c2ccc(C#Cc3ccccc3F)cc2O[C@H]1CN(C)C(=O)Cc1ccccc1` the AC50 (Paired box protein Pax-8) was 5.88 µM (active), the AC50 [12] was 25.5 µM (active) and the AC50 [13] was 37.6 µM (active). For the same molecule, the AC50 [14] was 14.5 µM (active).

For `O=c1c2ccccc2on1-c1ccccc1`, the IC50 (Hexokinase) was > 25 µM (inactive).

For `O=C(Nc1cc(Cl)ccc1C(=O)O)c1ccncc1`, the IC50 (Hexokinase) was > 25 µM (inactive).

In the case of `CC1(C)N=C(N)N=C(N)N1c1ccc(Oc2ccc(Cl)cc2)c(Cl)c1`, the EC50 [15] is reported as < 0.06 µM (active), the EC50 [16] is reported as 0.177 µM (active) and the EC50 [17] is reported as 14.3 µM (active). For the same molecule, the EC50 (Streptococcus) was 0.085 µM (active) and the EC50 (BJ [18]) was > 133 µM (inactive).
